From patent US20050255537A1, “Method for monitoring treatment with a parathyroid hormone” (priority 1999, published 2005)

What was measured:
[1] = test system: postmenopausal women and osteoporotic men; test: Example 6 spine BMD treatment-response model and BCM response-indicator neural network (women and men); assay type: in vivo, human
Excerpt: Data from studies in Examples 1 and 5 above were further analyzed to develop more detailed models for the use of bone markers in monitoring and predicting effects of PTH on clinically significant correlates of efficacy in the treatment of osteoporosis, such as bone mineral density (BMD). Population pharmacodynamic (PD) models were developed for total lumbar spine BMD, and the following biochemical markers of bone formation and resportion: PICP, BSAP, NTX, and DPD. The final treatment-response model for total lumbar spine was used to calculate BMD values at 12 months of treatment for each patient, based on the individual's parameter estimates (empirical Bayesian estimate). These predicted BMD measurements were merged with the observed BCM values, at baseline, 1 month, and 3 months of treatment, for patients who completed at least 12 months of LY333334 treatment. A neural network was developed to characterize the relationship between BCM values at 1 and 3 months and response to treatment, as measured by change in total lumbar spine BMD.
The spine BMD placebo-response model characterized change in total lumbar spine BMD over time in osteoporotic patients taking calcium and vitamin D supplements. The BMD treatment-response model was used to characterize change in total lumbar spine BMD during the course of treatment and to identify patient factors influencing response to therapy. This model was also used to provide individual estimates of change in BMD at 12 months. The BCM treatment-response models characterized changes in PICP, BSAP, NTX, and DPD, during the course of treatment.
The individual estimates of change in spine BMD from the final treatment-response model were combined with observed BCM values to develop the response-indicator neural network. The neural network was used to evaluate change in the biochemical markers as early indicators of change in total lumbar spine BMD.
Change in total lumbar spine BMD at 12 months of treatment was calculated from the post-hoc BMD estimates for each patient from the final spine BMD treatment-response model. These BMD estimates were combined with observed BCM values at baseline, 1, and 3 months for all patients completing at least 12 months of LY333334 therapy.
Neural networks were used to evaluate the biochemical markers as potential indicators of bone mineral density response to LY333334 treatment. The relationship between change in biochemical marker values and change in spine BMD is complex and the appropriate model structure is unknown. The neural network approach was chosen to avoid the a priori assumption of a model form. A proprietary artificial neural network program developed at Eli Lilly and Company (described in Wikel J, Dow E, Heathman M. 1996. Interpretive Neural Networks for QSAR. Network Science [available on-line]) was used to evaluate the BCM values as predictors of change in spine BMD. Other back-propagation networks which are known in the art and commercially available also would provide similar results. The BCM values, as well as significant patient factors from the final spine BMD treatment-response model, were used as inputs to the neural network. The network was trained to predict change in total lumbar spine BMD.

[2] = test system: men with primary osteoporosis; test: Example 5 study GHAJ: incident nonvertebral fractures; assay type: in vivo, human
Method: Four hundred thirty seven men with primary osteoporosis were enrolled in the study. Approximately one-third of die patients were randomly assigned to LY333334 40 μg/day plus calcium and vitamin D, one-third of the patients were randomly assigned to LY333334 20 μg/day plus calcium and vitamin D, and one-third of the patients were randomly assigned to placebo plus calcium and vitamin D. • Number of Subjects: • PTH: Male 437, Female 0, Total 437; • LY333334 20 μg: Male: Total 151. • LY333334 40 μg: Male: Total 139. • Placebo: Male: Total 147. • Diagnosis and Inclusion Criteria: The study patients were men with primary osteoporosis, aged 30 to 85 years, inclusive. L-2 to L-4 vertebrae must have been intact without artifacts, crush fracture or other abnormalities which would have interfered with the analysis of the posterior-anterior lumbar spine bone mineral density (BMD) measurement which must have been at least 2.0 SD below that of young, healthy men. […] Patient Demographic and Other Baseline Characteristics
Although the incidence of nonvertebral fractures was measured, it was not a specified efficacy endpoint. The number of patients reporting at least one incident nonvertebral fracture is tabulated by fracture location in Table 10 (below). […] At individual body sites, the number of fractures was insufficient for a meaningful statistical analysis.

[3] = Female Patients, BSAP at 3 Months 10-14.99 pM
[4] = Female Patients, BSAP at 3 Months 15-19.99 pM
[5] = Female Patients, BSAP at 3 Months <10 pM
[6] = Female Patients, BSAP at 3 Months ≧20 pM
[7] = Females, change in PICP at 1 month 50-99 pM, baseline PICP <100 pM
[8] = Females, change in PICP at 1 month 50-99 pM, baseline PICP ≧100 pM
[9] = Females, change in PICP at 1 month 100-149 pM, baseline PICP <100 pM
[10] = Females, change in PICP at 1 month 100-149 pM, baseline PICP ≧100 pM
[11] = Females, change in PICP at 1 month <50 pM, baseline PICP <100 pM
[12] = Females, change in PICP at 1 month <50 pM, baseline PICP ≧100 pM
[13] = Females, change in PICP at 1 month ≧150 pM, baseline PICP ≧100 pM
[14] = Male Patients, BSAP at 3 Months 10-14.99 pM
[15] = Male Patients, BSAP at 3 Months 15-19.99 pM
[16] = Male Patients, BSAP at 3 Months <10 pM
[17] = Male Patients, BSAP at 3 Months ≧20 pM
[18] = Males, change in PICP at 1 month 50-99 pM, baseline PICP <100 pM
[19] = Males, change in PICP at 1 month 50-99 pM, baseline PICP ≧100 pM
[20] = Males, change in PICP at 1 month 100-149 pM, baseline PICP <100 pM
[21] = Males, change in PICP at 1 month 100-149 pM, baseline PICP ≧100 pM
[22] = Males, change in PICP at 1 month <50 pM, baseline PICP <100 pM
[23] = Males, change in PICP at 1 month <50 pM, baseline PICP ≧100 pM
[24] = Males, change in PICP at 1 month ≧150 pM, baseline PICP <100 pM
[25] = Males, change in PICP at 1 month ≧150 pM, baseline PICP ≧100 pM
[26] = all patients with baseline PICP >100 pM and increase in PICP >100 pM, 12 months
[27] = male patients with baseline PICP >100 pM and increase in PICP >100 pM
[28] = postmenopausal women with baseline PICP >100 pM and increase in PICP >100 pM

## CC[C@H](C)[C@H](NC(=O)[C@H](CCC(=O)O)NC(=O)[C@H](CO)NC(=O)[C@@H](NC(=O)[C@@H](N)CO)C(C)C)C(=O)N[C@@H](CCC(N)=O)C(=O)N[C@@H](CC(C)C)C(=O)N[C@@H](CCSC)C(=O)N[C@@H](Cc1cnc[nH]1)C(=O)N[C@@H](CC(N)=O)C(=O)N[C@@H](CC(C)C)C(=O)NCC(=O)N[C@@H](CCCCN)C(=O)N[C@@H](Cc1cnc[nH]1)C(=O)N[C@@H](CC(C)C)C(=O)N[C@@H](CC(N)=O)C(=O)N[C@@H](CO)C(=O)N[C@@H](CCSC)C(=O)N[C@@H](CCC(=O)O)C(=O)N[C@@H](CCCN=C(N)N)C(=O)N[C@H](C(=O)N[C@@H](CCC(=O)O)C(=O)N[C@@H](Cc1c[nH]c2ccccc12)C(=O)N[C@@H](CC(C)C)C(=O)N[C@@H](CCCN=C(N)N)C(=O)N[C@@H](CCCCN)C(=O)N[C@@H](CCCCN)C(=O)N[C@@H](CC(C)C)C(=O)N[C@@H](CCC(N)=O)C(=O)N[C@@H](CC(=O)O)C(=O)N[C@H](C(=O)N[C@@H](Cc1cnc[nH]1)C(=O)N[C@@H](CC(N)=O)C(=O)N[C@@H](Cc1ccccc1)C(=O)O)C(C)C)C(C)C [LY333334]
[1]; [3]
  % Change in Spine BMD at 12 Months, 5th-95th Percentiles: 1.5-18.9%
  % Change in Spine BMD at 12 Months, Mean: 9.4%
[1]; [4]
  % Change in Spine BMD at 12 Months, 5th-95th Percentiles: 3.4-24.7%
  % Change in Spine BMD at 12 Months, Mean: 12.2%
[1]; [5]
  % Change in Spine BMD at 12 Months, 5th-95th Percentiles: 0.5-15.3%
  % Change in Spine BMD at 12 Months, Mean: 7.2%
[1]; [6]
  % Change in Spine BMD at 12 Months, 5th-95th Percentiles: 4.6-20.9%
  % Change in Spine BMD at 12 Months, Mean: 12.9%
[1]; [7]
  % Change in Spine BMD at 12 Months, 5th-95th Percentiles: 2.2-19.0%
  % Change in Spine BMD at 12 Months, Mean: 9.5%
[1]; [8]
  % Change in Spine BMD at 12 Months, 5th-95th Percentiles: 3.6-18.8%
  % Change in Spine BMD at 12 Months, Mean: 10.4%
[1]; [9]
  % Change in Spine BMD at 12 Months, 5th-95th Percentiles: 2.9-16.1%
  % Change in Spine BMD at 12 Months, Mean: 10.4%
[1]; [10]
  % Change in Spine BMD at 12 Months, 5th-95th Percentiles: 6.9-19.7%
  % Change in Spine BMD at 12 Months, Mean: 12.6%
[1]; [11]
  % Change in Spine BMD at 12 Months, 5th-95th Percentiles: −0.7-12.4%
  % Change in Spine BMD at 12 Months, Mean: 5.7%
[1]; [12]
  % Change in Spine BMD at 12 Months, 5th-95th Percentiles: 2.9-17.3%
  % Change in Spine BMD at 12 Months, Mean: 9.0%
[1]; Females, change in PICP at 1 month ≧150 pM, baseline PICP <100 pM
  % Change in Spine BMD at 12 Months, Mean: 13.7%
[1]; [13]
  % Change in Spine BMD at 12 Months, 5th-95th Percentiles: 11.9-31.1%
  % Change in Spine BMD at 12 Months, Mean: 18.5%
[1]; [14]
  % Change in Spine BMD at 12 Months, 5th-95th Percentiles: 1.9-14.9%
  % Change in Spine BMD at 12 Months, Mean: 7.9%
[1]; [15]
  % Change in Spine BMD at 12 Months, 5th-95th Percentiles: 3.0-15.0%
  % Change in Spine BMD at 12 Months, Mean: 8.3%
[1]; [16]
  % Change in Spine BMD at 12 Months, 5th-95th Percentiles: 1.6-13.0%
  % Change in Spine BMD at 12 Months, Mean: 7.1%
[1]; [17]
  % Change in Spine BMD at 12 Months, 5th-95th Percentiles: 1.6-19.6%
  % Change in Spine BMD at 12 Months, Mean: 10.0%
[1]; [18]
  % Change in Spine BMD at 12 Months, 5th-95th Percentiles: 4.6-18.1%
  % Change in Spine BMD at 12 Months, Mean: 9.4%
[1]; [19]
  % Change in Spine BMD at 12 Months, 5th-95th Percentiles: 3.6-15.8%
  % Change in Spine BMD at 12 Months, Mean: 8.7%
[1]; [20]
  % Change in Spine BMD at 12 Months, 5th-95th Percentiles: 7.2-14.0%
  % Change in Spine BMD at 12 Months, Mean: 11.1%
[1]; [21]
  % Change in Spine BMD at 12 Months, 5th-95th Percentiles: 4.6-18.6%
  % Change in Spine BMD at 12 Months, Mean: 11.3%
[1]; [22]
  % Change in Spine BMD at 12 Months, 5th-95th Percentiles: 1.2-11.7%
  % Change in Spine BMD at 12 Months, Mean: 4.8%
[1]; [23]
  % Change in Spine BMD at 12 Months, 5th-95th Percentiles: 1.5-11.7%
  % Change in Spine BMD at 12 Months, Mean: 6.9%
[1]; [24]
  % Change in Spine BMD at 12 Months, 5th-95th Percentiles: 2.7-20.8%
  % Change in Spine BMD at 12 Months, Mean: 10.7%
[1]; [25]
  % Change in Spine BMD at 12 Months, 5th-95th Percentiles: 6.0-18.0%
  % Change in Spine BMD at 12 Months, Mean: 10.2%
[1]; [26]
  mean increase in total lumbar spine BMD: 13.6%
  minimum increase in total lumbar spine BMD: ≥ 4.3%
[1]; [27]
  mean increase in total lumbar spine BMD: 10.8%
  minimum increase in total lumbar spine BMD: ≥ 4.3%
[1]; men who did not meet the PICP criteria
  mean increase in total lumbar spine BMD: 7.4%
[1]; patients who did not meet the PICP criteria, 12 months
  mean increase in total lumbar spine BMD: 8.2%
[1]; [28]
  mean increase in total lumbar spine BMD: 16.0%
  minimum increase in total lumbar spine BMD: ≥ 5.9%
[1]; women who did not meet the PICP criteria
  mean increase in total lumbar spine BMD: 8.8%
[2]; 20 μg/day
  patients with at least one incident nonvertebral fracture: Ankle: 1
  patients with at least one incident nonvertebral fracture: Other: 0
  patients with at least one incident nonvertebral fracture: Radius: 1
  patients with at least one incident nonvertebral fracture: Ribs: 1
  patients with at least one incident nonvertebral fracture: Total Patients: 2
[2]; 40 μg/day
  patients with at least one incident nonvertebral fracture: Ankle: 0
  patients with at least one incident nonvertebral fracture: Other: 1
  patients with at least one incident nonvertebral fracture: Radius: 0
  patients with at least one incident nonvertebral fracture: Ribs: 0
  patients with at least one incident nonvertebral fracture: Total Patients: 1
[2]; placebo, 20 and 40 μg/day, p=0.670
  treatment difference in proportion of patients having at least one incident nonvertebral fracture: no significant treatment difference
